Test results reported in EP4389827A1, “AMINOGLYCOSIDE-LINKED PHOTOSENSITIZERS” (Centre National de la Recherche Scientifique, priority 2022, dated 2024).
Read-outs that look alike come from different tables or passages of the source.

Tests used:
[1] = tested on: S. aureus USA300 persister cells; assay: Antibacterial photodynamic therapy on persister cells; assay type: cell-based, Staphylococcus aureus; settings: persister cells (6 hours, 2 mM neomycin); aPDT at 10 µM, 5 J/mm^2 (Figure 6a)
Protocol: (§1) Persister plateau and AG concentration varied from one species to another. In S. aureus USA300, a stable plateau was obtained following 6 hours of incubation with 2 mM of neomycin. […] This control is crucial to make sure that a persister state has been achieved. […] As there are no significant differences between irradiated and non-irradiated samples, however, the production of singlet oxygen may not be the factor leading to cell death. In S. aureus Newman, cells were treated for 24 hours with 1 mM of neomycin. […] Although this synergy does exist, like in S. aureus USA300, there is no significant difference in survival for irradiated and non-irradiated samples, except for Ce6.

C. albicans SC5314 = assay: Minimal inhibitory concentration, with or without 660 nm irradiation; assay type: cell-based; settings: Candida albicans, SC5314, light or radiation study, 18 h, read-out: MIC
Protocol: (§2) Acinetobacter baumannii DSM30011, Bacillus subtilis 168, Pseudomonas aeruginosa PA14, P. aeruginosa PAO1, Staphylococcus aureus Mu50, S. aureus Newman and S. aureus USA300 were all grown in MHB-CA at 37°C with an agitation of 180 rpm. Candida albicans SC5314 was grown in yeast extract peptone dextrose broth at 35°C with an agitation of 180 rpm.
(§3) Minimal inhibitory concentrations (MICs) for selected bacteria were investigated according to the EUCAST guidelines. Serial dilutions of the compounds, photosensitizers and aminoglycosides were made in MHB-CA in 384-well plates. Stationary-phase cells were diluted in MHB-CA to have a final concentration of 5.5 × 10^5 CFU/mL. Samples were incubated in the dark for 20 minutes at 37°C and either irradiated at 660 nm for 30 minutes with a LED device or kept in the dark. Irradiated samples received a total of 168 mJ/mm^2. Plates were then incubated at 37°C for 18 hours and MICs were evaluated visually. Triplicates were done and the synergy, or fractional inhibitory concentration (FIC), was calculated according to Doern et al., 2014: FIC = (MIC of AB)/(MIC of A) + (MIC of AB)/(MIC of B) [formula]

B. subtilis 168 = assay: Minimal inhibitory concentration (EUCAST), with or without 660 nm irradiation; assay type: cell-based, Bacillus subtilis; settings: read-out: MIC
Protocol: as §2, §3

E. coli KanR = assay: as above; assay type: cell-based
Protocol: as §3

E. coli pET-29 = assay: as above; assay type: cell-based
Protocol: as §3

K. pneumoniae LM21 = assay: as above; assay type: cell-based; settings: read-out: MIC
Protocol: as §3

[2] = tested on: S. aureus Newman persister cells; assay: Antibacterial photodynamic therapy on persister cells; assay type: cell-based, Staphylococcus aureus; settings: persister cells (24 hours, 1 mM neomycin); irradiated, 5 J/mm^2 (Figure 7a)
Protocol: as §1

[3] = tested on: P. aeruginosa PA14 persister cells; assay: as above; assay type: cell-based, Pseudomonas aeruginosa; settings: persister cells (1 mM tobramycin, 24 hours); aPDT, 5 J/mm^2
Protocol: In P. aeruginosa PA14, persister cells were obtained by treating with 1 mM of tobramycin for 24 hours. The effect of aPDT was not as impactful (Figures 9a, 9b), but there was a slight drop of 1.6 and 1.1 log10 CFU/mL for Neo-Ce6 and Tobra-Ce6, respectively.

[4] = tested on: A. baumannii DSM30011 persister cells; assay: as above; assay type: cell-based, Acinetobacter baumannii; settings: persister cells (200 µM neomycin, 24 hours); aPDT, irradiated, 5 J/mm^2
Protocol: Persister cells were obtained after incubation with 200 µM of neomycin for 24 hours.

P. aeruginosa PAO1 = assay: Antibacterial photodynamic therapy on planktonic cells (CFU count); assay type: cell-based; settings: Pseudomonas aeruginosa, PAO1, light or radiation study, 0.5 h, 10 µM, irradiated, 5 J/mm^2 (Figure 5c), read-out: Survival drop
Protocol: as §2
(§4) Cells were brought to stationary phase by incubating them in MHB-CA for at least 18 hours at 37°C with 180 rpm and diluted to an optical density of 1.0 just before the experiment. Cells were incubated for 20 minutes with either the compounds, photosensitizers alone, or aminoglycosides alone. Unless stated otherwise, a concentration of 10 µM was used for all experiments and samples were irradiated for 30 minutes at 660 nm with the Solis-660C lamp from ThorLabs, receiving a total of 5 J/mm^2. After illumination, cells were washed with phosphate-buffered saline (PBS) 1X, serially diluted and plated on Mueller-Hinton agar. The next day, colony forming units (CFUs) were counted.

P. aeruginosa PA14 = assay: as above; assay type: cell-based; settings: Pseudomonas aeruginosa, PA14, light or radiation study, 0.5 h, irradiated, 5 J/mm^2 (Figure 5a), read-out: Survival drop
Protocol: as §2, §4

[5] = with (+) irradiation, 660 nm 30 minutes, 168 mJ/mm^2

SMILES | persister cell survival (in words) [1] | MIC (C. albicans SC5314; [5]) | MIC (C. albicans SC5314; without (-) irradiation) | MIC (B. subtilis 168; Bacillus subtilis, 168, light or radiation study, 18 h, without (-) irradiation) | MIC (B. subtilis 168; [5]) | MIC (E. coli KanR; Escherichia coli, light or radiation study, 18 h) | MIC (E. coli KanR; [5]) | MIC (E. coli pET-29; Escherichia coli, PET29, light or radiation study, 18 h, without (-) irradiation) | MIC (E. coli pET-29; [5]) | MIC (K. pneumoniae LM21; Klebsiella pneumoniae, LM21, light or radiation study, 18 h, without (-) irradiation) | MIC (K. pneumoniae LM21; [5]) | persister cell survival (in words) [2] | drop [3] | drop [4] | log reduction at 10 µM (P. aeruginosa PAO1) | log reduction at 10 µM (P. aeruginosa PA14)
C=Cc1c(C)c2cc3nc(c(CC(=O)O)c4[nH]c(cc5nc(cc1[nH]2)C(C)=C5CC)c(C)c4C(=O)O)[C@@H](CCC(=O)O)[C@@H]3C [Ce6, chlorin e6] | some killing | 32 µM | > 64 µM | > 64 µM | > 64 µM | > 64 µM | > 64 µM | > 64 µM | > 64 µM | > 64 µM | > 64 µM |  |  |  |  | 
C=Cc1c(C)c2cc3nc(c(CC(=O)O)c4[nH]c(cc5nc(cc1[nH]2)C(C)=C5CC)c(C)c4C(=O)O)[C@@H](CCC(=O)NC[C@H]1O[C@H](O[C@@H]2[C@@H](O)[C@H](O[C@H]4O[C@H](CN)[C@@H](O)C[C@H]4N)[C@@H](N)C[C@H]2N)[C@H](O)[C@@H](N)[C@@H]1O)[C@@H]3C [Tobra-Ce6] | close to or under the detection limit |  |  |  |  |  |  |  |  |  |  | significantly lower than in cells treated with Ce6 alone | 1.1 log10 CFU/mL | 1.8 log10 CFU/mL | 3.5 | 2.6
